The assay addresses T1, S1P1 receptor (Homo sapiens, UniProt P21453).
T1 construct: expressed in transfected cells; membranes
The assay is described as follows: S1P1 GTPγS binding assay. The format is biochemical. The conditions noted are these: membranes of Rat Basophilic Leukaemia cells (RBL) stably expressing S1P1 receptor, 35S-GTPγS. As for the experimental part: Rat Basophilic Leukaemia cells (RBL) stably expressing S1P1 receptor were grown to 80% confluency before being harvested into 10 ml Phospho-Buffered Saline (PBS) and centrifuged at 1200 rpm for 5 minutes. After removal of the supernatant, the pellet was re-suspended and homogenised in 20 volumes assay buffer (20 mM HEPES pH 7.4, 100 mM NaCl, 10 mM MgCl2.6H2O, 10 μM GDP Saponin 10 μg/ml). The membrane suspension was further centrifuged for 20 minutes at 20,000 rpm re-homogenised and spun again. Following the second centrifugation the pellet was resuspended in an appropriate volume (1 ml for each flask of cells) and assayed for protein concentration.
Concentrated stock of S1P was sonicated before serial dilutions were prepared from a starting concentration of 10^−5 M. Diluted membranes (10 μg/well) were incubated with various concentrations of S1P and 0.3 nM ^35S-GTPγS (NEN; specific activity 1250 Ci/mmol) in 96 deep well plates. Binding was performed at 30° C. for 45 minutes and terminated by harvesting the membranes onto GF/B filter plates using a Packard Universal Harvester. After drying the plates for 45 minutes, 50 μl of Microscint 0 was added to each well and binding measured on a Topcount NXT (Perkin Elmer). Data was analysed using Graphpad Prism 4 and expressed as percentage stimulation above basal. […]

T1 sequence (P21453 whole entry): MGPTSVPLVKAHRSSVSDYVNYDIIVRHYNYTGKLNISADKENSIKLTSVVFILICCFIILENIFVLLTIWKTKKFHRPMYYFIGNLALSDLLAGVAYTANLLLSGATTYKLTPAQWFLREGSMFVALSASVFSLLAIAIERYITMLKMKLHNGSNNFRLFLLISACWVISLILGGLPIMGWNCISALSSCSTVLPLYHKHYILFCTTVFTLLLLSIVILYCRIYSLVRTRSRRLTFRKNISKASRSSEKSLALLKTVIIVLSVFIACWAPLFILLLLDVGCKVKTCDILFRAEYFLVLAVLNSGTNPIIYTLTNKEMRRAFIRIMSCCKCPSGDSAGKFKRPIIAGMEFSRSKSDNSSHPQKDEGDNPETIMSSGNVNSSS

For the compound `CC(C)Oc1ccc(-c2nc(-c3ccc4c(cnn4CCC(=O)O)c3)no2)cc1Cl` [Example 1, 3-[5-(5-{3-Chloro-4-[(1-methylethyl)oxy]phenyl}-1,2,4-oxadiazol-3-yl)-1H-indazol-1-yl]propanoic acid], the EC50 is under 1000 nM.

The values above are taken from patent publication US8324254B2, “Oxadiazole substituted indazole derivatives for use as sphingosine 1-phosphate (S1P) agonists” (Glaxo Group Limited, priority 2007, dated 2012).
